Patent US20240010606A1, “FUMARATE DERIVATIVES AND THEIR MEDICAL USE” (Sitryx Therapeutics Limited, priority 2020, published 2024)
Where a name gives a salt, the structure may show the parent alone.

Tests used:
hepatocytes [1] = assay: Hepatocyte stability assay, mouse; assay type: in vitro ADME; settings: 10 μM compound
Excerpt: (§1) Biological Example 3—Hepatocyte Stability Assay
(§2) Defrosted cryo-preserved hepatocytes (viability >70%) are used to determine the metabolic stability of a compound via calculation of intrinsic clearance (CIint; a measure of the removal of a compound from the liver in the absence of blood flow and cell binding). Clearance data are particularly important for […] as they can be used in combination with in vivo data to predict the half-life and oral bioavailability of a drug.
(§3) The metabolic stability in hepatocytes assay involves a time-dependent reaction using both positive and negative controls. The cells must be pre-incubated at 37° C. then spiked with test compound (and positive control); samples taken at pre-determined time intervals are analysed to monitor the change in concentration of the initial drug compound over 60 minutes. A buffer incubation reaction (with no hepatocytes present) acts as a negative control and two cocktail solutions, containing compounds with known high and low clearance values (verapamil/7-hydroxycoumarin and propranolol/diltiazem), act as positive controls. • 1. The assay is run with a cell concentration of 0.5×10^6 cells/mL in Leibovitz buffer. • 2. All compounds and controls are run in duplicate. • 3. Compound concentration is 10 μM. • 4. All compounds and controls are incubated with both cells and buffer to show turnover is due to hepatic metabolism. • 5. All wells on the incubation plate will have 326.7 μL of either cells or buffer added. • 6. Prior to assay, cell and buffer-only incubation plates are preincubated for 10 mins at 37° C. • 7. The assay is initiated by adding compounds, 3.3 μL of 1 mM in 10% DMSO-90% Buffer; final DMSO concentration is 0.1%. • 8. Samples are taken at regular timepoints (0, 5, 10, 20, 40, 60 min) until 60 mins. • 9. Sample volume is 40 μL and it is added to 160 μL of crash solvent (acetonitrile with internal standard) and stored on ice. • 10. At the end of the assay, the crash plates are centrifuged at 3500 rpm for 20 mins at 4° C. • 11. 80 μL of clear supernatant is removed and mixed with 80 μL of deionised water before being analysed by LC-MS/MS.
(§4) Raw LC-MS/MS data are exported to, and analysed in, Microsoft Excel for determination of intrinsic clearance. The percentage remaining of a compound is monitored using the peak area of the initial concentration as 100%. Intrinsic clearance and half-life values are calculated using a graph of the natural log of percentage remaining versus the time of reaction in minutes. Half-life (min) and intrinsic clearance (CIint in μL min^−1 10^−6 cells) values are calculated using the gradient of the graph (the elimination rate constant, k) and Equations 1 and 2.

[2] = Hepatocyte stability assay, mouse; assay type: in vitro ADME; settings: mouse, cryopreserved hepatocytes, 10 μM compound
Excerpt: as §1, §2, §3, §4

IL-1β = assay: THP-1 AlphaLISA IL-1β cytokine assay; assay type: cell-based; settings: Homo sapiens, differentiated THP-1 cells
Protocol: Biological Example 1—THP-1 AlphaLISA IL-1β and IL-6 Cytokine Assay Measuring Inhibitory Effects on IL-1, and IL-6 Cytokine Output from THP-1s The cytokine inhibition profiles of compounds of formula (I) were determined in a differentiated THP-1 cell assay. All assays were performed in RPMI-1640 growth medium (Gibco), supplemented with 10% fetal bovine serum (FBS; Gibco), 1% penicillin-streptomycin and 1% sodium pyruvate unless specified otherwise. The IL-1β and IL-6 cytokine inhibition assays were each run in a background of differentiated THP-1 cells as described below. All reagents described were from Sigma-Aldrich unless specified otherwise. Compounds were prepared as 10 mM DMSO stocks. THP-1 cells were expanded as a suspension up to 80% confluence in appropriate growth medium. Cells were harvested, suspended, and treated with an appropriate concentration of phorbol 12-myristate 13-acetate (PMA) over a 72 hr period (37° C./5% CO2). Following 72 hrs of THP-1 cell incubation, cellular medium was removed and replaced with fresh growth media containing 1% of FBS. Working concentrations of compounds were prepared separately in 10% FBS treated growth medium and pre-incubated with the cells for 30 minutes (37° C./5% CO2). Following the 30 minute compound pre-incubation, THP-1s were treated with an appropriate concentration of LPS and the THP-1s were subsequently incubated for a 24 hr period (37° C./5% CO2). An appropriate final concentration of Nigericin was then dispensed into the THP-1 plates and incubated for 1 hour (37° C./5% CO2) before THP-1 supernatants were harvested and collected in separate polypropylene 96-well holding plates. Reagents from each of the IL-1β and IL-6 commercial kits (Perkin Elmer) were prepared and run according to the manufacturer's instructions. Subsequently, fluorescence signal detection in a microplate reader was measured (EnVision® Multilabel Reader, Perkin Elmer). Percentage inhibition was calculated per cytokine by normalizing the sample data to the high and low controls used within each plate (+/−LPS respectively). Percentage inhibition was then plotted against compound concentration and the 50% inhibitory concentration (IC50) was determined from the resultant concentration-response curve.

NRF2 = NRF2 activation assay (DiscoverX PathHunter NRF2 translocation kit, U2OS cells); assay type: cell-based
Protocol: Biological Example 2—NRF2 Activation Assay Measuring Compound Activation Effects on the Anti-Inflammatory Transcription Factor NRF2 in DiscoverX PathHunter NRF2 Translocation Kit Potency and efficacy of compounds of formula (I) against the target of interest to activate NRF2 (nuclear factor erythroid 2-related factor 2) were determined using the PathHunter NRF2 translocation kit (DiscoverX). The NRF2 translocation assay was run using an engineered recombinant cell line, utilising enzyme fragment complementation to determine activation of the Keap1-NRF2 protein complex and subsequent translocation of NRF2 into the nucleus. Enzyme activity was quantified using a chemiluminescent substrate consumed following the formation of a functional enzyme upon PK-tagged NRF2 translocation into the nucleus. Additionally, a defined concentration of dimethyl fumarate was used as the ‘High’ control to normalise test compound activation responses to. U2OS PathHunter eXpress cells were thawed from frozen prior to plating. Following plating, U2OS cells were incubated for 24 hrs (37° C./5% CO2) in commercial kit provided cell medium. Following 24 hrs of U2OS incubation, cells were directly treated with an appropriate final concentration of compound. Following compound treatment, the U2OS plates were incubated for a further 6 hours (37° C./5% CO2) before detection reagent from the PathHunter NRF2 commercial kit was prepared and added to test plates according to the manufacturer's instructions. Subsequently, the luminescence signal detection in a microplate reader was measured (PHERAstar®, BMG Labtech). Percentage activation was calculated by normalising the sample data to the high and low controls used within each plate (+/−DMF). Percentage activation/response was then plotted against compound concentration and the 50% activation concentration (EC50) was determined from the plotted concentration-response curve.

hepatocytes [3] = assay: Hepatocyte stability assay, human; assay type: in vitro ADME; settings: 10 μM compound
Excerpt: as §1, §2, §3, §4

[4] = Hepatocyte stability assay, human; assay type: in vitro ADME; settings: cryopreserved hepatocytes, 10 μM compound
Excerpt: as §1, §2, §3, §4

[5] = +GSH, normalised to dimethyl fumarate high control, Table 3
[6] = −GSH, normalised to dimethyl fumarate high control, Table 3
[7] = Table 2, compounds of formula (II)
[8] = +GSH, Table 4, compounds of formula (II)
[9] = −GSH, Table 4, compounds of formula (II)

Row | Compound | CIint (hepatocytes [1]; Table 5) | half-life at 10 μM ([2]; Table 5, read-out: T½) [min] | IC50 (IL-1β; LPS then Nigericin, Table 1) [µM] | EC50 (NRF2; +GSH, Table 3) [µM] | EC50 (NRF2; −GSH, Table 3) [µM] | CIint (hepatocytes [3]; Table 5) | half-life at 10 μM ([4]; Table 5, read-out: T½) [min] | CIint (hepatocytes [1]; Table 6) | half-life at 10 μM ([2]; Table 6, read-out: T½) [min] | IC50 (IL-1β; [7]) [µM] | EC50 (NRF2; [8]) [µM] | EC50 (NRF2; [9]) [µM] | CIint (hepatocytes [3]; Table 6) | half-life at 10 μM ([4]; Table 6, read-out: T½) [min] | T½ (hepatocytes [3]; Table 6) [min] | NRF2 activation Emax (NRF2; [5]) | NRF2 activation Emax (NRF2; [6]) | NRF2 activation Emax (NRF2; [8]) | NRF2 activation Emax (NRF2; [9])
1 | O=C(O)/C=C/C(=O)OC1CCCCCC1 [Intermediate 8, (E)-4-(cycloheptyloxy)-4-oxobut-2-enoic acid] |  |  |  |  |  |  |  | ++ (++ means >30-110) | 30 to 100 | 30 to 50 | 23 to 48.4 | < 23 | +++ (+++ means >15-30) | 30 to 100 |  |  |  | +++ (+++ means >114-150%) | ++++ (++++ means >150%)
2 | O=C(/C=C/C(=O)OC1CCCCCCC1)OCCc1nnn[nH]1 [Example 5, 2-(1H-tetrazol-5-yl)ethyl cyclooctyl fumarate] | + (+ means >277) | < 5 | 2.5 to 6.1 | 20 to 100 | 2.1 to 6 | ++ (++ means 150-277) | 5 to 29 |  |  |  |  |  |  |  |  | + (+ means >17.1-99) | +++ (+++ means 150-199%) |  | 
3 | COC(=O)/C=C/C(=O)OCCN1C(=O)CCC1=O [2-(2,5-Dioxopyrrolidin-1-yl)ethyl methyl fumarate, reference compound] | >277 μL min^−1 10^−6 cells | < 5 | 6.2 |  |  | >277 μL min^−1 10^−6 cells | < 5 | >277 μL min^−1 10^−6 cells | < 5 |  |  |  | >277 μL min^−1 10^−6 cells |  | <5 |  |  |  | 
4 | O=C(O)/C=C/C(=O)OC1CCCCCCC1 [Intermediate 6, (E)-4-(cyclooctyloxy)-4-oxobut-2-enoic acid] |  |  |  |  |  |  |  | ++ (++ means >30-110) | 5 to 29 | 6 to 30 | < 23 | < 23 | ++++ (++++ means 5-15) | > 100 |  |  |  | ++++ (++++ means >150%) | ++++ (++++ means >150%)
5 | O=C(O)COC(=O)/C=C/C(=O)OC1CCCCCC1 [Example 10, (E)-2-((4-(cycloheptyloxy)-4-oxobut-2-enoyl)oxy)acetic acid] | + (+ means >277) | < 5 | < 2.5 |  |  | ++++ (++++ means <50) | 30 to 100 |  |  |  |  |  |  |  |  |  |  |  | 

Second part, led by results:

Row | CIint (hepatocytes [1]; Table 5) | half-life at 10 μM ([2]; Table 5, read-out: T½) [min] | IC50 (IL-1β; LPS then Nigericin, Table 1) [µM] | EC50 (NRF2; +GSH, Table 3) [µM] | EC50 (NRF2; −GSH, Table 3) [µM] | CIint (hepatocytes [3]; Table 5) | half-life at 10 μM ([4]; Table 5, read-out: T½) [min] | CIint (hepatocytes [1]; Table 6) | half-life at 10 μM ([2]; Table 6, read-out: T½) [min] | IC50 (IL-1β; [7]) [µM] | EC50 (NRF2; [8]) [µM] | EC50 (NRF2; [9]) [µM] | CIint (hepatocytes [3]; Table 6) | half-life at 10 μM ([4]; Table 6, read-out: T½) [min] | T½ (hepatocytes [3]; Table 6) [min] | Compound | NRF2 activation Emax (NRF2; [5]) | NRF2 activation Emax (NRF2; [6]) | NRF2 activation Emax (NRF2; [8]) | NRF2 activation Emax (NRF2; [9])
6 | + (+ means >277) | < 5 | < 2.5 | 6 to 20 | < 2 | +++ (+++ means 50-149) | 5 to 29 |  |  |  |  |  |  |  |  | CC(C)(COC(=O)/C=C/C(=O)OC1CCCCCCC1)C(=O)O [Example 7, (E)-3-((4-(cyclooctyloxy)-4-oxobut-2-enoyl)oxy)-2,2-dimethylpropanoic acid] | + (+ means >17.1-99) | ++++ (++++ means 200-250%) |  | 
7 | + (+ means >277) | < 5 | < 2.5 | 20 to 100 | < 2 | +++ (+++ means 50-149) | 5 to 29 |  |  |  |  |  |  |  |  | CC(CC(=O)O)OC(=O)/C=C/C(=O)OC1CCCCCCC1 (centres unmarked) [Example 11, (E)-3-((4-(cyclooctyloxy)-4-oxobut-2-enoyl)oxy)butanoic acid] | + (+ means >17.1-99) | ++++ (++++ means 200-250%) |  | 
8 | + (+ means >277) | < 5 | < 2.5 | 6 to 20 | 2.1 to 6 | + (+ means >277) | < 5 |  |  |  |  |  |  |  |  | CCCCCC[C@@H](C)OC(=O)/C=C/C(=O)OCCC(=O)O [Example 14, (R,E)-3-((4-(octan-2-yloxy)-4-oxobut-2-enoyl)oxy)propanoic acid] | ++ (++ means 100-149) | +++ (+++ means 150-199%) |  | 
